The record followed here is patent US10034861B2 (priority 2016, dated 2018).

Common to all, as to type: biochemical
The target of one assay is PDE1A (Homo sapiens (Human), UniProt P54750). The assay can be described thus: biochemical. To be noted: 15 nM tritium labelled cAMP, 1 hr at room temperature, SPA beads. The source says: (§1) Table 1 lists the IC50 value for inhibition of PDE1 by the compounds of the invention. […] PDE1 assays are described in the Experimental Section.
The target in a further assay is PDE1C (Homo sapiens (Human), UniProt Q14123). Kind of assay: biochemical. To be noted: 15 nM tritium labelled cAMP, 1 hr at room temperature, SPA beads.
Text: as §1

The next assay deals with PDE1B (Homo sapiens (Human), UniProt Q01064). Kind of assay: PDE1 inhibition assay (PDE1B). To be noted: 15 nM tritium labelled cAMP, 1 hr at room temperature, SPA beads; read-out: PDE1B, IC50.
Text: as §1

PDE1C, sequence (Q14123 whole entry): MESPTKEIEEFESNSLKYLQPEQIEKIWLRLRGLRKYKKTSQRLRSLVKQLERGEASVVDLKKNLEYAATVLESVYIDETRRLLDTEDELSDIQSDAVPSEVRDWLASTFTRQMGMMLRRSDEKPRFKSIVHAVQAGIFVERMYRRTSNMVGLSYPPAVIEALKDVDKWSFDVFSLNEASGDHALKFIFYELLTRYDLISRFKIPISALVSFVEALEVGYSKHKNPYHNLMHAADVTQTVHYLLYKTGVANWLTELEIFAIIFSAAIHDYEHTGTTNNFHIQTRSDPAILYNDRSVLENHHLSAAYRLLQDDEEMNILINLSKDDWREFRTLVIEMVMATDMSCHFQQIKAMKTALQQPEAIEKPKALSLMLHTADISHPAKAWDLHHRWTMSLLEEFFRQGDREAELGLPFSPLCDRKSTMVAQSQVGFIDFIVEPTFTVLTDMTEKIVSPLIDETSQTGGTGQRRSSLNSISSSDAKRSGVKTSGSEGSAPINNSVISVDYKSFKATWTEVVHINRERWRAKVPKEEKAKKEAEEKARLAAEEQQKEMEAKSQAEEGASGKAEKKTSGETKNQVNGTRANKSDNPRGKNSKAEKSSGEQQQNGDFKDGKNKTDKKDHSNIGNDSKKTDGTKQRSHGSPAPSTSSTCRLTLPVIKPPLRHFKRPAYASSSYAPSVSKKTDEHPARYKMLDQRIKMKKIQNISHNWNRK
PDE1B, sequence (Q01064 whole entry): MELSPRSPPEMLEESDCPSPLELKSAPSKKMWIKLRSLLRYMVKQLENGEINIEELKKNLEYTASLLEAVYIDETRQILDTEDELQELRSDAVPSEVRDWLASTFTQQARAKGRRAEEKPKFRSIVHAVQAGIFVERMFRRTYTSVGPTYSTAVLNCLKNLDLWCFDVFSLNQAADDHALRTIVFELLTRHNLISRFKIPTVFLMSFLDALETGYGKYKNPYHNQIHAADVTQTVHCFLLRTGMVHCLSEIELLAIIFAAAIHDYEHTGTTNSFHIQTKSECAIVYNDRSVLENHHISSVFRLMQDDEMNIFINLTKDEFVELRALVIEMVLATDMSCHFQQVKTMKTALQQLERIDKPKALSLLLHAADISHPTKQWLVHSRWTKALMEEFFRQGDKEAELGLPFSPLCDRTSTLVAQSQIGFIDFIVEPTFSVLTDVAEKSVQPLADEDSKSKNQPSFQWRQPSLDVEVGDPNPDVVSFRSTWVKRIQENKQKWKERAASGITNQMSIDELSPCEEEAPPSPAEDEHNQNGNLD
PDE1A, sequence (P54750 whole entry): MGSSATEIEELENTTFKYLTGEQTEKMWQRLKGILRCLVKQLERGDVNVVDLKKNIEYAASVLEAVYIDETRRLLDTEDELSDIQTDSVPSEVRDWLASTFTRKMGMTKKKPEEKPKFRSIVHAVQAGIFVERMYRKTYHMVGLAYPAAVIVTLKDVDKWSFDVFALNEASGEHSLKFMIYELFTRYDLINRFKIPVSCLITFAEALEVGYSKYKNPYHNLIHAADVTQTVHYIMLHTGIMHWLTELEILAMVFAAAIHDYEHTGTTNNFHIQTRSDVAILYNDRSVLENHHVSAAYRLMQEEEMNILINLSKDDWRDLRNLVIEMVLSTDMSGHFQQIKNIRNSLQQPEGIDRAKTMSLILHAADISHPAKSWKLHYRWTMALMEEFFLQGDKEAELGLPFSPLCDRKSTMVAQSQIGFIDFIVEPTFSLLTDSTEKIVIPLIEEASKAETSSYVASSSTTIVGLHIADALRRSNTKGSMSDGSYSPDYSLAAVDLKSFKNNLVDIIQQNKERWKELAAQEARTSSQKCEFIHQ

By IC50 is commonly meant the concentration at which inhibition is half-maximal. As to `CCOc1ncccc1-c1cc(NCc2ccc(C)nc2)c2c(n1)c(C)nn2C(C)C` [Example 87, 5-(2-ethoxy-3-pyridyl)-1-isopropyl-3-methyl-N-[(6-methyl-3-pyridyl)methyl]pyrazolo[4,3-b]pyridin-7-amine], the concentration for half-maximal inhibition (IC50) was 6.3 nM on PDE1A, 13 nM at PDE1C and 0.95 nM on PDE1B.
The like results for `CCOc1ncccc1-c1cc(NCc2ccccc2OC)c2c(n1)c(C)nn2C(C)C` [Example 88, 5-(2-ethoxy-3-pyridyl)-1-isopropyl-N-[(2-methoxyphenyl)methyl]-3-methyl-pyrazolo[4,3-b]pyridin-7-amine] were, in that order, 110 nM, 170 nM and 5.1 nM.
The like results for `CCOc1ncccc1-c1cc(NCc2ccccc2F)c2c(n1)c(C)nn2C(C)C` [Example 89, 5-(2-ethoxy-3-pyridyl)-N-[(2-fluorophenyl)methyl]-1-isopropyl-3-methyl-pyrazolo[4,3-b]pyridin-7-amine] were, in that order, 61 nM, 93 nM and 1.5 nM.
The corresponding values for `CCOc1ncccc1-c1cc(NCc2ccccc2C(F)(F)F)c2c(n1)c(C)nn2C(C)C` [Example 90, 5-(2-ethoxy-3-pyridyl)-1-isopropyl-3-methyl-N-[[2-(trifluoromethyl)phenyl]methyl]pyrazolo[4,3-b]pyridin-7-amine] are 270 nM, 640 nM and 12 nM.
For the compound `CCOc1ncccc1-c1cc(NCc2nccnc2OC)c2c(n1)c(C)nn2C(C)C` [Example 91, 5-(2-ethoxy-3-pyridyl)-1-isopropyl-N-[(3-methoxypyrazin-2-yl)methyl]-3-methyl-pyrazolo[4,3-b]pyridin-7-amine], the IC50 against PDE1A came out at 27 nM; against PDE1C it was 70 nM; on PDE1B, 2.3 nM.
The corresponding values for `CCOc1ncccc1-c1cc(NCc2cnccc2OC)c2c(n1)c(C)nn2C(C)C` [Example 92, 5-(2-ethoxy-3-pyridyl)-1-isopropyl-N-[(4-methoxy-3-pyridyl)methyl]-3-methyl-pyrazolo[4,3-b]pyridin-7-amine] are 47 nM, 110 nM and 2.7 nM.
The corresponding values for `CCCOc1ncccc1-c1cc(NCc2nnn(C)n2)c2c(n1)c(C)nn2C(C)C` [Example 93, 1-isopropyl-3-methyl-N-[(2-methyltetrazol-5-yl)methyl]-5-(2-propoxy-3-pyridyl)pyrazolo[4,3-b]pyridin-7-amine] are 4.3 nM, 17 nM and 0.96 nM.
The like results for `CCCOc1ncccc1-c1cc(NCc2cnn(C)c2)c2c(n1)c(C)nn2C(C)C` [Example 94, 1-isopropyl-3-methyl-N-[(1-methylpyrazol-4-yl)methyl]-5-(2-propoxy-3-pyridyl)pyrazolo[4,3-b]pyridin-7-amine] were, in that order, 1.4 nM, 4.9 nM and 0.065 nM.
In the case of `COc1ccc(CNc2cc(-c3cccnc3OC)nc3c(C)nn(C(C)C)c23)cn1` [Example 96, 1-isopropyl-5-(2-methoxy-3-pyridyl)-N-[(6-methoxy-3-pyridyl)methyl]-3-methyl-pyrazolo[4,3-b]pyridin-7-amine], the IC50 came to 18 nM against PDE1A, 5.3 nM against PDE1C and 3.8 nM at PDE1B.
The corresponding values for `Cc1nn(C(C)C)c2c(NCc3cnn(C)c3)cc(-c3cccnc3OC(C)C)nc12` [Example 97, 5-(2-isopropoxy-3-pyridyl)-1-isopropyl-3-methyl-N-[(1-methylpyrazol-4-yl)methyl]pyrazolo[4,3-b]pyridin-7-amine] are 1.4 nM, 9.1 nM and 0.6 nM.
The like results for `CCOc1ncccc1-c1cc(NCc2nn[nH]n2)c2c(n1)c(C)nn2C(C)C` [Example 99, 5-(2-ethoxy-3-pyridyl)-1-isopropyl-3-methyl-N-(2H-tetrazol-5-ylmethyl)pyrazolo[4,3-b]pyridin-7-amine] were, in that order, 0.73 nM, 3.8 nM and 0.31 nM.
The corresponding values for `CCOc1ncccc1-c1cc(NCc2ccccn2)c2c(n1)c(C)nn2C(C)C` [Example 100, 5-(2-ethoxy-3-pyridyl)-1-isopropyl-3-methyl-N-(2-pyridylmethyl)pyrazolo[4,3-b]pyridin-7-amine] are 6.3 nM, 21 nM and 0.39 nM.
For `CCOc1ncccc1-c1cc(NCc2cccc(C)n2)c2c(n1)c(C)nn2C(C)C` [Example 101, 5-(2-ethoxy-3-pyridyl)-1-isopropyl-3-methyl-N-[(6-methyl-2-pyridyl)methyl]pyrazolo[4,3-b]pyridin-7-amine], the figures for the IC50 on PDE1A, against PDE1C and on PDE1B were 20 nM, 43 nM and 0.9 nM, respectively.
Take `CCOc1ncccc1-c1cc(NCc2cccc(OC)n2)c2c(n1)c(C)nn2C(C)C` [Example 102, 5-(2-ethoxy-3-pyridyl)-1-isopropyl-N-[(6-methoxy-2-pyridyl)methyl]-3-methyl-pyrazolo[4,3-b]pyridin-7-amine]: the IC50 was 8 nM at PDE1A, 34 nM against PDE1C and 0.73 nM at PDE1B.
As to `CCOc1ncccc1-c1cc(NCc2ccnc(C)c2)c2c(n1)c(C)nn2C(C)C` [Example 103, 5-(2-ethoxy-3-pyridyl)-1-isopropyl-3-methyl-N-[(2-methyl-4-pyridyl)methyl]pyrazolo[4,3-b]pyridin-7-amine], the figures for the IC50 against PDE1A, against PDE1C and at PDE1B were 5.4 nM, 17 nM and 2.9 nM, respectively.
Regarding `CCOc1ncccc1-c1cc(NCc2ccnc(OC)c2)c2c(n1)c(C)nn2C(C)C` [Example 104, 5-(2-ethoxy-3-pyridyl)-1-isopropyl-N-[(2-methoxy-4-pyridyl)methyl]-3-methyl-pyrazolo[4,3-b]pyridin-7-amine], the results for the IC50 on PDE1A, at PDE1C and at PDE1B were 2.2 nM, 6.3 nM and 0.16 nM, respectively.
With `CCOc1ncccc1-c1cc(NCc2ccnc(C)n2)c2c(n1)c(C)nn2C(C)C` [Example 105, 5-(2-ethoxy-3-pyridyl)-1-isopropyl-3-methyl-N-[(2-methylpyrimidin-4-yl)methyl]pyrazolo[4,3-b]pyridin-7-amine], the results for the IC50 at PDE1A, against PDE1C and on PDE1B were 54 nM, 150 nM and 12 nM, respectively.
Turning to `CCOc1ncccc1-c1cc(NCc2cncc(OC)c2)c2c(n1)c(C)nn2C(C)C` [Example 106, 5-(2-ethoxy-3-pyridyl)-1-isopropyl-N-[(5-methoxy-3-pyridyl)methyl]-3-methyl-pyrazolo[4,3-b]pyridin-7-amine], the half-inhibitory concentration (IC50) against PDE1A stood at 2.1 nM; against PDE1C it was 3.9 nM; at PDE1B, 0.45 nM.
The like results for `CCOc1ncccc1-c1cc(NCc2cccc(C(F)(F)F)n2)c2c(n1)c(C)nn2C(C)C` [Example 107, 5-(2-ethoxy-3-pyridyl)-1-isopropyl-3-methyl-N-[[6-(trifluoromethyl)-2-pyridyl]methyl]pyrazolo[4,3-b]pyridin-7-amine] were, in that order, 110 nM, 170 nM and 5.6 nM.
The corresponding values for `CCOc1ncccc1-c1cc(NCc2cccn(C)c2=O)c2c(n1)c(C)nn2C(C)C` [Example 108, 3-[[[5-(2-ethoxy-3-pyridyl)-1-isopropyl-3-methyl-pyrazolo[4,3-b]pyridin-7-yl]amino]methyl]-1-methyl-pyridin-2-one] are 2.8 nM, 12 nM and 0.36 nM.
Take `CCOc1ncccc1-c1cc(NCc2cnn(CC)c2)c2c(n1)c(C)nn2C(C)C` [Example 109, 5-(2-ethoxy-3-pyridyl)-N-[(1-ethylpyrazol-4-yl)methyl]-1-isopropyl-3-methyl-pyrazolo[4,3-b]pyridin-7-amine]: the IC50 at PDE1A stood at 4.9 nM; against PDE1C it was 11 nM; on PDE1B, 0.66 nM.
For the compound `CCOc1ncccc1-c1cc(NCc2ccc(OC)nc2)c2c(n1)c(C)nn2C(C)C` [Example 111, 5-(2-ethoxy-3-pyridyl)-1-isopropyl-N-[(6-methoxy-3-pyridyl)methyl]-3-methyl-pyrazolo[4,3-b]pyridin-7-amine], the IC50 stood at 28 nM at PDE1A, 68 nM at PDE1C and 1.4 nM on PDE1B.
The corresponding values for `CCOc1ncccc1-c1cc(NCc2ccc(OC)cn2)c2c(n1)c(C)nn2C(C)C` [Example 112, 5-(2-ethoxy-3-pyridyl)-1-isopropyl-N-[(5-methoxy-2-pyridyl)methyl]-3-methyl-pyrazolo[4,3-b]pyridin-7-amine] are 61 nM, 100 nM and 12 nM.
Consider `CCOc1ncccc1-c1cc(NCc2csc(C)n2)c2c(n1)c(C)nn2C1COC1` [Example 113, 5-(2-ethoxy-3-pyridyl)-3-methyl-N-[(2-methylthiazol-4-yl)methyl]-1-(oxetan-3-yl)pyrazolo[4,3-b]pyridin-7-amine], for which the figures for the IC50 on PDE1A, on PDE1C and on PDE1B were 110 nM, 130 nM and 5.7 nM, respectively.
Consider `CCOc1ncccc1-c1cc(NCc2cnc(OC)cn2)c2c(n1)c(C)nn2C(C)C` [Example 114, 5-(2-ethoxy-3-pyridyl)-1-isopropyl-N-[(5-methoxypyrazin-2-yl)methyl]-3-methyl-pyrazolo[4,3-b]pyridin-7-amine], for which the half-maximal inhibitory concentration (IC50) against PDE1A was 24 nM; on PDE1C it was 46 nM; at PDE1B, 3 nM.
The corresponding values for `CCOc1ncccc1-c1cc(NCc2cccnc2)c2c(n1)c(C)nn2C(C)C` [Example 115, 5-(2-ethoxy-3-pyridyl)-1-isopropyl-3-methyl-N-(3-pyridylmethyl)pyrazolo[4,3-b]pyridin-7-amine] are 15 nM, 31 nM and 2 nM.
